Measurements as given in patent publication US11040963B2 (priority 2017, dated 2021).

Columns and labels:
[1] = target: HA H5 A/Vietnam/1203/04 (Influenza A virus (A/Vietnam/1203/2004(H5N1)), UniProt Q5EP31); assay: biochemical; conditions: Competition binding (AlphaLISA), pIC50 H5 A/Vietnam/1203/04
[2] = target: HA H1 A/California/07/09 (Influenza A virus (A/California/07/2009(H1N1)), UniProt C3W5X2); assay: biochemical; conditions: Competition binding (AlphaLISA), pIC50 H1 A/California/07/09
[3] = in vitro; conditions: dog, Cytotoxicity (pCC50) MDCK
[4] = test system: H1N1 A/California/07/09; assay: microbe, parasite or virus in culture; type: cell-based, influenza A virus; conditions: for EC50: Influenza A virus, H1N1, MDCK, 96 h, read-out: Virus neutralization assay (VNA), pEC50 H1N1 A/California/07/09 (converted)
[5] = test system: H1N1 A/New Caledonia/20/99; assay: microbe, parasite or virus in culture; type: cell-based, influenza A virus; conditions: for EC50: Influenza A virus, H1N1, MDCK, 96 h, read-out: Virus neutralization assay (VNA), pEC50 H1N1 A/New Caledonia/20/99 (converted)
[6] = test system: H5N1 A/Vietnam/1203/04; assay: microbe, parasite or virus in culture; type: cell-based, influenza A virus; conditions: 96 h, average of repeats; for EC50: Influenza A virus, H5N1, MDCK, read-out: Virus neutralization assay (VNA), pEC50 H5N1 A/Vietnam/1203/04, MDCK cells, 96 h, CPE by ATPlite (converted)
[7] = target: HA H1 A/New Caledonia/20/99 (Influenza A virus (A/New Caledonia/20/1999(H1N1)), UniProt Q6WG00); assay: biochemical; conditions: Competition binding (AlphaLISA), pIC50 H1 A/New Caledonia/20/99

Row | Structure (SMILES) | IC50 [1] [nM] | IC50 [2] [nM] | CC50 [3] [nM] | EC50 [4] [nM] | EC50 [5] [nM] | EC50 [6] [nM] | IC50 [7] [nM] | Virus neutralization assay (VNA), pEC50 H1N1 A/California/07/09 [4] | Virus neutralization assay (VNA), pEC50 H1N1 A/New Caledonia/20/99 [5] | Virus neutralization assay (VNA), pEC50 H5N1 A/Vietnam/1203/04 ([6]; MDCK cells, CPE by ATPlite)
1 | CNC(=O)c1cnc(-c2cccc(C(=O)N3CCN(C(C(=O)OC)c4ccccc4)CC3)c2)s1 (stereo not drawn) [Example 64] | 2000 | 79.4 | > 50100 | 1000 | 501 | 25100 | 79.4 | – | – | –
2 | COC(=O)C(c1ccccn1)C1CCN(C(=O)c2cccc(-c3nc4ccc(OC)cc4s3)c2)CC1 (stereo not drawn) [Example 66] | 794 | 100 | 20000 | 1000 | 501 | 12600 | 63.1 | – | – | –
3 | COC(=O)[C@@H](c1ccccc1)N1CCN(C(=O)c2cccc(-c3nc4cc(C(F)(F)F)ccc4o3)c2)[C@H](CC(N)=O)C1 [Example 67] | 3160 | 50.1 | 39800 | 794 | 631 | 31600 | 50.1 | – | – | –
4 | COC(=O)C(c1cccnc1)N1CCN(C(=O)c2cccc(-c3nc4ccc(OC)cc4s3)c2)CC1 (stereo not drawn) [Example 68] | 1260 | 200 | 10000 | 2000 | 501 | 20000 | 100 | – | – | –
5 | [2H]C([2H])([2H])c1nnc(C(c2ccccc2)N2CCN(C(=O)c3cccc(-c4nc5cc(C(F)(F)F)ccc5o4)c3)CC2)o1 (stereo not drawn) [Example 70] | 3980 | 158 | > 50100 | 501 | 631 | > 50100 | 158 | – | – | –
6 | COc1ccc2nc(-c3cccc(C(=O)N4CCN(C(c5ccccc5)c5nnc(C)o5)CC4)c3)sc2c1 (stereo not drawn) [Example 71] | 1000 | 100 | > 50100 | 794 | 631 | 7940 | 100 | – | – | –
7 | COc1ccc2nc(-c3cccc(C(=O)N4CCN(C(c5ccccc5)c5nnn(C)n5)CC4)c3)sc2c1 (stereo not drawn) [Example 72] | 1580 | 200 | 50100 | 794 | 631 | 39800 | 126 | – | – | –
8 | Cc1nnc(C(c2ccccc2)N2CCN(C(=O)c3cccc(-c4nc5cc(NS(C)(=O)=O)ccc5o4)c3)CC2)o1 (stereo not drawn) [Example 73] | 1260 | 15.8 | > 50100 | 794 | 794 | > 50100 | 25.1 | – | – | –
9 | COc1ccc2nc(-c3cccc(C(=O)N4CCN(C(c5ccccc5)c5ncco5)CC4)c3)sc2c1 (stereo not drawn) [Example 74] | 2000 | 200 | > 50100 | 1000 | 631 | 6310 | 79.4 | – | – | –
10 | NCc1nnc(C(c2ccccc2)N2CCN(C(=O)c3cccc(-c4nc5cc(C(F)(F)F)ccc5o4)c3)CC2)o1 (stereo not drawn) [Example 75] | 3980 | 200 | 10000 | 1000 | 631 | 7940 | 158 | – | – | –
11 | Cc1nnc([C@@H](c2ccccc2)N2CCN(C(=O)c3cccc(-c4cnc5ccccc5c4)c3)CC2)o1 [Example 76] | 10000 | 200 | 15800 | 1260 | 631 | 31600 | 158 | – | – | –
12 | Cc1nnc([C@@H](c2ccccc2)N2CCN(C(=O)c3cccc(-c4nc5cccc(C)c5o4)c3)CC2)o1 [Example 77] | 10000 | 251 | 3980 | 1260 | 631 | > 50100 | 200 | – | – | –
13 | COC(=O)C(c1ccccc1)N1CCN(C(=O)c2cccc(-c3nc4ccc(OC)cc4s3)n2)CC1 (stereo not drawn) [Example 78] | 25100 | 631 | > 50100 | 1260 | 631 | 50100 | 316 | – | – | –
14 | COc1ccc2nc(-c3cccc(C(=O)N4CCN(C(c5ccccc5)c5nnco5)CC4)c3)sc2c1 (stereo not drawn) [Example 79] | 1260 | 200 | > 50100 | 1580 | 631 | 12600 | 79.4 | – | – | –
15 | COC(=O)C(c1ccccc1)N1CCN(C(=O)c2ccc(-c3nc4ccc(OC)cc4s3)o2)CC1 (stereo not drawn) [Example 80] | 1000 | 316 | > 50100 | 1580 | 631 | > 50100 | 251 | – | – | –
16 | COC(=O)C(c1ccccc1)N1CCN(C(=O)c2cccc(NC(=O)c3ccc(OC)cc3)c2)CC1 (stereo not drawn) [Example 81] | 1260 | 200 | > 50100 | 2000 | 631 | 10000 | 126 | – | – | –
17 | COc1ccc2nc(-c3cccc(C(=O)N4CCN(C(CO)c5ccccc5)CC4)c3)sc2c1 (stereo not drawn) [Example 82] | 1000 | 200 | 5010 | 2000 | 631 | 12600 | 126 | – | – | –
18 | COc1ccc2nc(-c3cccc(C(=O)N4CCN(C(C(N)=O)c5ccccc5)CC4)c3)sc2c1 (stereo not drawn) [Example 84] | 1580 | 316 | > 50100 | 2510 | 631 | 31600 | 200 | – | – | –
19 | Cc1nnc(C(c2ccccc2)N2CCN(C(=O)c3cccc(-c4nc5cc(C(F)(F)F)ccc5o4)c3)CC2)o1 (stereo not drawn) [Example 86] | 3160 | 79.4 | 31600 | 631 | 794 | 31600 | 126 | – | – | –
20 | O=C(c1cccc(-c2nc3cc(C(F)(F)F)ccc3o2)c1)N1CCN(C(c2ccccc2)c2nnc(C3(O)CNC3)o2)CC1 (stereo not drawn) [Example 87] | 2510 | 63.1 | > 50100 | 398 | 501 | 39800 | 39.8 | – | – | –
21 | COC(=O)C(c1ccccc1)N1C[C@H]2CC[C@@H](C1)N2C(=O)c1cccc(-c2nc3ccc(OC)cc3s2)c1 (stereo partly drawn) [Example 88] | 501 | 200 | > 50100 | 1000 | 794 | 12600 | 126 | – | – | –
22 | COC(=O)C(c1ccccc1)N1CCN(C(=O)c2cccc(-c3ncc(C(=O)N4CCOCC4)s3)c2)CC1 (stereo not drawn) [Example 89] | 1260 | 79.4 | > 50100 | 1260 | 794 | 15800 | 79.4 | – | – | –
23 | COc1ccc2nc(-c3cccc(C(=O)N4CCN(C(C(C)=O)c5ccccc5)CC4)c3)sc2c1 (stereo not drawn) [Example 90] | 1000 | 316 | 31600 | – | – | – | 158 | 5.8 | 6.1 | <4.3
24 | COc1ccc2nc(-c3cccc(C(=O)N4CCN(C(c5ccccc5)c5ccc[nH]c5=O)CC4)c3)sc2c1 (stereo not drawn) [Example 91] | 2510 | 501 | 39800 | 1580 | 794 | > 50100 | 316 | – | – | –
25 | O=C(c1cccc(-c2nc3cc(C(F)(F)F)ccc3o2)c1)N1CCN(C(c2ccccc2)c2nnc(C3CNC3)o2)CC1 (stereo not drawn) [Example 92] | 3160 | 126 | 10000 | 3160 | 794 | 10000 | 79.4 | – | – | –
26 | COc1ccc2nc(-c3cccc(C(=O)N4CCN(C(C(=O)NCCN)c5ccccc5)CC4)c3)sc2c1 (stereo not drawn) [Example 93] | 631 | 79.4 | 15800 | 3980 | 794 | 7940 | 63.1 | – | – | –
27 | COC(=O)C(C)(c1ccccc1)N1CCN(C(=O)c2cccc(-c3nc4ccc(OC)cc4s3)c2)CC1 (stereo not drawn) [Example 94] | 631 | 79.4 | 2510 | 316 | 1000 | 7940 | 50.1 | – | – | –
28 | Cc1nnc([C@@H](c2ccccc2)N2CCN(C(=O)c3cccc(-c4cc5ccccc5cn4)c3)CC2)o1 [Example 95] | 5010 | 126 | 39800 | 794 | 1000 | 31600 | 158 | – | – | –
29 | COCCNC(=O)C(c1ccccc1)N1CCN(C(=O)c2cccc(-c3nc4ccc(OC)cc4s3)c2)CC1 (stereo not drawn) [Example 97] | 631 | 100 | 10000 | 1000 | 1000 | 3980 | 79.4 | – | – | –
30 | COc1ccc2nc(-c3cccc(C(=O)N4CCN(C(c5ccccc5)c5noc(C)n5)CC4)c3)sc2c1 (stereo not drawn) [Example 98] | 2510 | 251 | 12600 | 1260 | 1000 | 12600 | 126 | – | – | –
